{"source": "patent US11719488B2", "about": "“Lyophilization process and a teverelix-TFA lyophilizate obtained thereby” (Antev Limited, priority 2018, dated 2023)", "assay": "Solubility of teverelix-TFA", "assay_type": "physicochemical", "note": "Counter-ions that a name gives are not always drawn. Non-standard residues stand in square brackets, D forms with d. Residues, ends and D or L forms follow the SMILES beside them. dPhe(4-Cl) = N[C@H](Cc1ccc(Cl)cc1)C(=O)O; d2Nal = N[C@H](Cc1ccc2ccccc2c1)C(=O)O; d(hCit) = NC(=O)NCCCC[C@@H](N)C(=O)O; Lys(iPr) = CC(C)NCCCC[C@H](N)C(=O)O; d3Pal = N[C@H](Cc1cccnc1)C(=O)O"}
{"smiles": "CC(=O)N[C@H](Cc1ccc2ccccc2c1)C(=O)N[C@H](Cc1ccc(Cl)cc1)C(=O)N[C@H](Cc1cccnc1)C(=O)N[C@@H](CO)C(=O)N[C@@H](Cc1ccc(O)cc1)C(=O)N[C@H](CCCCNC(N)=O)C(=O)N[C@@H](CC(C)C)C(=O)N[C@@H](CCCCNC(C)C)C(=O)N1CCC[C@H]1C(=O)N[C@H](C)C(N)=O", "note": "[Teverelix-TFA, Ac-D-Nal-D-pClPhe-D-Pal-Ser-Tyr-D-Hci-Leu-Lys(iPr)-Pro-D-Ala-NH2] (Ac-[d2Nal][dPhe(4-Cl)][d3Pal]SY[d(hCit)]L[Lys(iPr)]P[dA]-NH2)", "values": [{"measurement": "solubility in water", "value": "very low solubility in water"}]}
